Measurements as given in US10617664B2, “Brain derived PPARα ligands” (Rush University Medical Center, priority 2015, dated 2020).

Experiments:
Format in all cases: cell-based, mouse
[1] = system: AMPA-driven calcium influx; assay: AMPA-driven calcium influx in transduced Ppara-null hippocampal neurons
Procedure: (§1) Ppara-null hippocampal neurons were transduced with lentivirions containing GFP (vector), FL-Ppara, and Y464D-Ppara for 48 h followed by treatment with vehicle (DMSO) (FIG. 11A), OCT (FIG. 11B), HEX (FIG. 11C), HMB (FIG. 11D), and WY14643 (FIG. 11E) for 24 h. Then neurons were stained for phalloidin to measure spine density. FIG. 11F) A representative picture of dendrite with spines (Cyan color) used for counting area of spine heads. Area of spine heads (FIG. 11G) and number of spines (FIG. 11H) in 10 μm of dendrites. Results are mean±SEM of 5 neurons per group. ^ap<0.05 vs vector only; ^bp<0.05 vs FL-Ppara. AMPA-driven calcium influx was measured in OCT (red), HEX (green) and HMB (purple)-treated Ppara-null hippocampal neurons transduced with lentivirions containing FL-Ppara (FIG. 11I), Y314D-Ppara (FIG. 11J), Y464D-Ppara (FIG. 11K), and Y314D/Y464D-Ppara (FIG. 11L). All neurons were treated with 50 μM of NMDA receptor antagonist N20C to inhibit passive calcium flow through NMDA receptor. (FIG. 11M-P) Similarly NMDA-driven calcium influx was measured in the lentivius-infected Ppara-null hippocampal neurons in the presence of different endogenous ligands. In these cases, Naspm-HCl was treated to stop the passive flow of calcium currents through AMPA receptor. Results are mean of three independent experiments.

[2] = system: Ppara-null hippocampal neurons; assay: Dendritic spine density (phalloidin) in transduced Ppara-null hippocampal neurons; conditions: lenti-FL-Ppara
Procedure: as §1
Dendritic spines are the crucial mediators of synaptic transmission among central neurons and often serve as a primary candidate for the long term morphological substrates of neuronal plasticity^12,13. Therefore, the effect of these ligands on the increase of spine density in cultured hippocampal neurons was studied. Briefly, mouse Ppara-null hippocampal neurons were transduced with lentivirus containing empty vector, FL-Ppara, or Y464D-Ppara for a week followed by the treatment with OCT, HEX, and HMB for four more days. After that, neurons were labelled with phalloidin to monitor the spine density. […] This observation was further validated by measuring the area of spine heads (FIG. 11F-G) and number of spines (FIG. 11H) in HEX, OCT, and HMB-treated Ppara-null neurons. HEX (FIG. 17G-H), OCT (FIG. 17I-J) and HMB (FIG. 17K-L) stimulated the expression of CREB in Ppara-null hippocampal neurons that were transduced with lentivirons containing the FL-Ppara gene.
Hippocampal regions were dissected from 18-day-old embryonic fetus as described elsewhere (PMID: 25007337), combined and plated in poly-D-lysine coated plate for another 2-3 weeks for branching. After that, these neurons were transduced with GFP-containing lentivirions for 2 d. Neurons were stained with Dylight-554-conjugated phalloidin (Cat #21834; Thermofisher) as per manufactures protocol and visualized in fluorescence microscope. […]

[3] = system: NMDA-driven calcium influx; assay: NMDA-driven calcium influx in transduced Ppara-null hippocampal neurons
Procedure: as §1

[4] = system: PPRE-driven luciferase activity; assay: PPRE-luciferase assay in Ppara-null astrocytes transduced with Ppara constructs; conditions: Ppara-null astrocytes (empty vector)
Procedure: (§2) Astrocytes plated at 60-70% confluence were transfected with tk-PPREx3-Luc, a PPRE-dependent luciferase reporter construct. After 24 h of transfection, cells were treated with different concentrations of HEX (FIG. 10A), OCT (FIG. 10B) and HMB (FIG. 10C) for 4 h followed by monitoring luciferase activity. Under similar experimental condition, MTT was performed to understand the effect of these ligands on cell viability (FIG. 10D, HEX; FIG. 10E, OCT; FIG. 10F, HMB). Results are mean±SD of three independent experiments. ^ap<0.001 vs. control. Ppara-null astrocytes were transduced with lentivirions containing empty vector (FIG. 10G), FL-Ppara (FIG. 10H), Y314D-Ppara (FIG. 10I), Y464D-Ppara (FIG. 10J), and Y314D/Y464D-Ppara (FIG. 10K) for 48 h followed by transfection with tk-PPREx3-Luc. After 24 h of transfection, cells were treated with different doses of HEX, OCT and HMB for 4 h followed by monitoring luciferase activity. PPRE luciferase activity was assayed in Ppara-null astrocytes transduced with lentivirions containing empty vector (FIG. 10L), FL-Ppara (FIG. 10M), Y314D-Ppara (FIG. 10N), Y464D-Ppara (FIG. 10O), and Y314D/Y464D-Ppara (FIG. 10P) after treatment with different doses of WY14643, fenofibrate, and clofibrate. PPRE luciferase activity was assayed in primary hippocampal neurons transduced with lentivirions containing empty vector (FIG. 10Q), FL-Ppara (FIG. 10R), Y314D-Ppara (FIG. 10S), Y464D-Ppara (FIG. 10T), and Y314D/Y464D-Ppara (FIG. 10U) after treatment with different doses of HEX, OCT and HMB. Results are mean±SD of three independent experiments. ^ap<0.001 vs. control.

astrocytes = assay: MTT cell viability in PPRE-luciferase transfected astrocytes; conditions: higher concentrations
Procedure: as §2

Row | SMILES | AMPA-mediated calcium influx ([1]; lenti-FL-Ppara) | AMPA-mediated calcium influx ([1]; lenti-Y314D-Ppara) | AMPA-mediated calcium influx ([1]; lenti-Y314D/Y464D-Ppara) | AMPA-mediated calcium influx ([1]; lenti-Y464D-Ppara) | density of spines [2] | NMDA-mediated calcium influx ([3]; lenti-FL-Ppara) | NMDA-mediated calcium influx ([3]; lenti-Y314D-Ppara) | NMDA-mediated calcium influx ([3]; lenti-Y314D/Y464D-Ppara) | NMDA-mediated calcium influx ([3]; lenti-Y464D-Ppara) | PPRE-driven luciferase activity [4] | cytotoxicity (MTT) (astrocytes)
1 | CCCCCCCCCCCCCCCC(N)=O [HEX, hexadecanamide] | stimulated | partially restore | remained unable to increase | remained unable to increase | stimulated | stimulated | partially restore | remained unable to increase | remained unable to increase | remained unable to induce | significant level of cytotoxicity
2 | CCOC(=O)C(C)(C)C(C)O (stereo not drawn) [HMB] | stimulated | partially restore | remained unable to increase | remained unable to increase | stimulated | stimulated | partially restore | remained unable to increase | remained unable to increase | remained unable to induce | significant level of cytotoxicity
3 | CCCCCCCCC=CCCCCCCCC(N)=O [OCT, 9-octadecenamide] | stimulated | partially restore | remained unable to increase | remained unable to increase | stimulated | stimulated | partially restore | remained unable to increase | remained unable to increase | remained unable to induce | significant level of cytotoxicity
